The text below walks through data of patent EP2451450B1, “Inhibitors of proline racemase enzymes for the treatment of Trypanosoma spp infections” (Institut Pasteur, priority 2009, dated 2011).

The test system of the assay is T. cruzi. As to the kind of experiment: Capture ELISA of Vero cultures infected 17h with or without inhibitor. The class given is cell-based, Trypanosoma cruzi. Particulars: 17h at 37°C, 10:1 parasite/cell ratio; 0-30 mM OxoPA, Br-OxoPA or 10-1000 µM PYC in DMSO; Fig. 9. As to the method: Flat-bottomed microtiter plates (Nunc, Denmark) were coated overnight at 4°C with rabbit anti-T. cruzi polyclonal antibodies and further blocked for 4 h at room temperature (RT) with 1% BSA, 0.05% Tween 20 in PBS. After washings, lysate samples from infected or control Vero cultures, or from T. cruzi, were then added and incubated at 4°C for 18h. Plates were washed with PBS-Tween and incubated for 2h at RT with polyclonal mouse anti-T. cruzi chronic serum, washed again and incubated for 1 h at RT with HRP-secondary antibodies. […] Optical densities were determined in a spectrophotometer at 450 nm and 650 nm and analyzed using Softmax Pro software.
To confirm the effect of the inhibitors in the initial steps of the host-parasite interaction, cultures were infected for 17h at 37°C at a 10:1 parasite/cell ratio with or without increasing doses of freshly prepared dilutions (0-30 mM) of OxoPA, Br-OxoPA (15), or (10-1000 µM) of PYC, previously dissolved in DMSO and further analyzed by capture ELISA (see methods and Fig. 9). […] Three ongoing studies were performed to determine whether TcPRAC inhibition by the new compounds affects parasite intracellular fate. To do this, host cells were infected for 17 hours then washed and different ligand concentrations (5 mM, 10 mM, 30, 100 mM) were added to the medium. The degree of infection was determined over 48 hours by capture ELISA. The number of parasites per well decreased in a dose-dependent manner (Fig. 7). These experiments indicate that TcPRAC inhibition by OxoPA and Br-OxoPA affects both cellular infection by T. cruzi and parasite development in tissues.
(In general: ELISA stands for enzyme-linked immunosorbent assay.)

Molecules are shown by their SMILES.

`O=C(O)/C=C/C(=O)CBr` [Br-OxoPA, (E)-5-bromo-4-oxopent-2-enoic acid]: the “inhibition of cellular infection” value is “a clear dose dependent inhibition of cellular infection”.

For `CC(=O)/C=C/C(=O)O` [OxoPA, (E)-4-oxopent-2-enoic acid], the “inhibition of cellular infection” value was “a clear dose dependent inhibition of cellular infection”.
